{
  "source": "paper PMC3950682",
  "about": "(Nucleic Acids Research, 2013)",
  "target": "Bmt5 (Saccharomyces cerevisiae, UniProt P40493)",
  "sequence (P40493 whole entry)": "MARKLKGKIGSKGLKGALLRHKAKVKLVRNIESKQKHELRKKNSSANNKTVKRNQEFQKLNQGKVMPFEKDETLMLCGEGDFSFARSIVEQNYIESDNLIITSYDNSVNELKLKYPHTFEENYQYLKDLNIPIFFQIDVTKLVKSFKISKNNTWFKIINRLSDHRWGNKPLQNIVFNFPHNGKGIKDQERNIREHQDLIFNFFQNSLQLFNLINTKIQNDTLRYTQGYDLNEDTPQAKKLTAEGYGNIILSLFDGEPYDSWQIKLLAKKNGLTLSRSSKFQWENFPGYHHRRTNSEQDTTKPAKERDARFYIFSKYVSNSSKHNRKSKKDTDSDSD",
  "assay": "biochemical",
  "data": [
    {"smiles": "C[S+](CC[C@H](N)C(=O)O)C[C@H]1O[C@@H](n2cnc3c(N)ncnc32)[C@H](O)[C@@H]1O", "note": "(stereo partly shown) [SAM]", "values": [
      {"measurement": "Kd", "result": "109 ± 10.8", "unit": "µM"}
    ]}
  ]
}
